From patent US4697036A, “Process for the preparation of optically active alpha-arylalkanoic acids and novel intermediates thereof” (Zambon S.p.A., priority 1984, dated 1987)

What was measured:
Assay type in all cases: in vivo
[1] = Anti-inflammatory activity by oral administration; details: for ED50: oral, dose column in μM/kg/os, after 3 h, read-out: ED50 (L.C. 95%)
From the text: A further unexpected property of the compounds of formula (C) is that they are in themselves pharmacologically active compounds. […] The following tables give the data relative to the anti-inflammatory and antipyretic activity of the compounds (D) in which: |Anti-inflammatory activity of the derivatives (a) and |(b) with respect to Naproxen and 5-bromo-Naproxen (c) |by oral administration

[2] = Antipyretic activity by oral administration in rats (change in body temperature)
From the text: Antipyretic activity of compound (a) and (b) with respect to
Naproxen and 5-bromo-Naproxen (c)
by oral administration in rats

[3] = Antipyretic activity by peritoneal administration in rats (change in body temperature); details: peritoneal administration (title)

SMILES	Inhibition (after 3 h) ([1]; 10 μM/kg/os)	Inhibition (after 3 h) ([1]; 30 μM/kg/os)	Inhibition (after 3 h) ([1]; 100 μM/kg/os)	ED50 [1]	Change in body temperature after 1 hour ([2]; 10 μM/kg/oral)	Change in body temperature after 2 hours ([2]; 10 μM/kg/oral)	Change in body temperature after 1 hour ([2]; 30 μM/kg/oral)	Change in body temperature after 2 hours ([2]; 30 μM/kg/oral)	Change in body temperature after 30 min ([3]; 10 μM/kg)	Change in body temperature after 1 hour ([3]; 10 μM/kg)	Change in body temperature after 4 hours ([3]; 10 μM/kg)	Change in body temperature after 1 hour ([2]; 100 μM/kg/oral)	Change in body temperature after 2 hours ([2]; 100 μM/kg/oral)	Change in body temperature after 1 hour ([2]; 300 μM/kg/oral)	Change in body temperature after 2 hours ([2]; 300 μM/kg/oral)	Change in body temperature after 30 min ([3]; 30 μM/kg)	Change in body temperature after 1 hour ([3]; 30 μM/kg)	Change in body temperature after 4 hours ([3]; 30 μM/kg)	also measured
COc1ccc2cc([C@H](C)C(=O)O)ccc2c1 [Naproxen, S(+)2-(6-methoxy-2-naphtyl)-propionic acid, reference compound]	38%	45%	66%	31 µmol/kg	-1.22 °C	-1.48 °C	-1.86 °C	-1.89 °C	-1.00 °C	-1.10 °C	-0.86 °C	–	–	–	–	–	–	–	Change in body temperature after 1 hour ([2]; 3 μM/kg/oral): -0.38 °C; Change in body temperature after 2 hours ([2]; 3 μM/kg/oral): -0.52 °C
COc1ccc2cc([C@H](C)C(=O)O)ccc2c1Br [(c), S(+)-2-(5-bromo-6-methoxy-2-naphthyl)-propionic acid, reference compound]	6%	34%	34%	196 µmol/kg	–	–	-0.17 °C	-0.66 °C	–	–	–	-1.33 °C	-1.67 °C	-1.42 °C	-1.84 °C	-0.55 °C	-1.01 °C	+0.06 °C	Inhibition (after 3 h) ([1]; 300 μM/kg/os): 56%; Change in body temperature after 30 min ([3]; 100 μM/kg): -0.78 °C; Change in body temperature after 1 hour ([3]; 100 μM/kg): -1.45 °C; Change in body temperature after 4 hours ([3]; 100 μM/kg): -0.99 °C
COC(=O)C(O)C(OC(=O)C(C)c1ccc2c(Br)c(OC)ccc2c1)C(=O)OC (stereo not shown) [(b)]	3%	14%	20%	160 µmol/kg	-0.17 °C	-0.19 °C	-0.49 °C	-0.68 °C	-0.24 °C	-0.52 °C	-0.26 °C	-0.46 °C	-0.68 °C	–	–	-0.77 °C	-0.87 °C	-0.44 °C	–
COC(=O)C(O)C(OC(=O)C(C)c1ccc2cc(OC)ccc2c1)C(=O)OC (stereo not shown) [(a)]	0%	0%	16%	175 µmol/kg	-0.02 °C	+0.02 °C	+0.07 °C	-0.61 °C	-0.26 °C	-0.52 °C	-0.19 °C	+0.01 °C	-0.76 °C	+0.03 °C	-0.81 °C	-0.61 °C	-1.02 °C	-0.56 °C	–
